The text below walks through data of article PMC9585728, “Antiviral activity and mechanism of the antifungal drug, anidulafungin, suggesting its potential to promote treatment of viral diseases” (BMC Medicine, 2022).

Structures are written as SMILES. Where “and” joins values, the source holds several entries; their conditions need not be identical. Equal entries are not always repeated. Entries after “also recorded” stand apart in the source; their conditions may differ. Starred links: 1 amine or outer side, 2 acyl side, 3 side chain; linkers in the order of their positions; H or OH if unused. Positions of bridges follow the written chain, without caps; N, C: chain ends. Non-standard residues stand in square brackets, D forms with d. Residues, ends and D or L forms follow the SMILES beside them. *: point of attachment. hTyr(3S-OH,4S-OH,3'-OSO3H) = N[C@H](C(=O)O)[C@H](O)[C@@H](O)c1ccc(O)c(OS(=O)(=O)O)c1; pTerphenylCO(4''-OnC5H11) = CCCCCOc1ccc(-c2ccc(-c3ccc(C(=O)*)cc3)cc2)cc1; Orn(4R-OH,5R-OH) = O=C([C@H](C[C@@H](O)[C@@H](O)N[*:3])N[*:1])[*:2]; hTyr(3S-OH,4S-OH) = N[C@H](C(=O)O)[C@H](O)[C@@H](O)c1ccc(O)cc1; Pro(3S-OH,4S-Me) = C[C@H]1CN[C@H](C(=O)O)[C@H]1O; X1 = CCCCCOc1ccc(-c2cc(-c3ccc(C(=O)*)cc3)no2)cc1; Gln(3R-OH) = NC(=O)C[C@@H](O)[C@H](N)C(=O)O; Hyp = O=C(O)[C@@H]1C[C@@H](O)CN1

The subject of data set [1] is SFTSV. The format is cell-based, severe fever with thrombocytopenia syndrome virus.
The next data set deals with DENV. Conditions: inhibition of DENV infection; cited from earlier work.
For data set [2], the system named is SFTSV. The data set is described as follows: microbe, parasite or virus in culture. The format is cell-based, severe fever with thrombocytopenia syndrome virus.
The subject of data set [3] is SFTSV. The data set is described as follows: microbe, parasite or virus in culture. The format is cell-based, severe fever with thrombocytopenia syndrome virus. To be noted: for IC50 / IC90: Severe fever with thrombocytopenia syndrome virus, Vero, 24 h.
The next data set can be described thus: in vitro. To be noted: African green monkey.
Another data set deals with SARS-CoV-2. The data set is described as follows: microbe, parasite or virus in culture. The format is cell-based, severe acute respiratory syndrome coronavirus 2.
Another data set relates to GTV. The data set is described as follows: microbe, parasite or virus in culture. The format is cell-based, Guertu virus.
A further data set relates to HRTV. The data set is described as follows: microbe, parasite or virus in culture. The format is cell-based, Heartland virus.
In a further data set the test system is ZIKV. The data set is described as follows: microbe, parasite or virus in culture. The format is cell-based, Zika virus.
In another data set the test system is CCHFV. The data set can be described thus: microbe, parasite or virus in culture. The format is cell-based, Crimean-Congo hemorrhagic fever virus.
In a further data set the test system is HSV-1. The data set can be described thus: microbe, parasite or virus in culture. The format is cell-based, herpes simplex virus 1.
Data set [4] relates to SFTSV. The format is cell-based, severe fever with thrombocytopenia syndrome virus. The source holds these as a separate data set.
The subject of data set [5] is SFTSV. The format is cell-based, severe fever with thrombocytopenia syndrome virus. This is another data set of the same source.
The subject of data set [6] is SFTSV. The format is cell-based, severe fever with thrombocytopenia syndrome virus. The source holds these as a separate data set.
The subject of data set [7] is SFTSV. The format is cell-based, severe fever with thrombocytopenia syndrome virus. To be noted: pH 5.
Data set [8] concerns SFTSV. The arrangement: species or system A129 mice. To be noted: mouse, in vivo.
Setting [9] is: Severe acute respiratory syndrome coronavirus 2, Vero.
Where [10] appears, read: Orthonairovirus haemorrhagiae, Vero.

With `CCCCCOc1ccc(-c2cc(-c3ccc(C(=O)N[C@H]4C[C@@H](O)[C@@H](O)NC(=O)[C@@H]5[C@@H](O)[C@@H](C)CN5C(=O)[C@H]([C@H](O)CC(N)=O)NC(=O)[C@H]([C@H](O)[C@@H](O)c5ccc(O)c(OS(=O)(=O)O)c5)NC(=O)[C@@H]5C[C@@H](O)CN5C(=O)[C@H]([C@@H](C)O)NC4=O)cc3)no2)cc1` [Micafungin, micafungin] (X1-[Orn(4R-OH,5R-OH)]T[Hyp][hTyr(3S-OH,4S-OH,3'-OSO3H)][Gln(3R-OH)][Pro(3S-OH,4S-Me)]; lactam 1-C), the “inhibitory effect on SFTSV infection during the entry process” value in the data set on SFTSV [1] is recorded as “less effective than that exerted by anidulafungin”. Moreover, the IC50 in the data set with DENV was 10.2 µM.

For the compound `C[C@@H]1[C@H](O)[C@@H](C)/C=C/C=C/CC/C=C/C=C/C=C/C=C/C(O[C@H]2O[C@H](C)[C@@H](O)[C@H](N)[C@@H]2O)CC2O[C@](O)(CC(O)C(O)CCC(O)CC(O)CC(O)CC(=O)O[C@H]1C)CC(O)C2C(=O)O` (some centres unmarked) [nystatin], the “mean inhibition rate of SFTSV infection” value in the data set on SFTSV [2] was 8.67%.

Regarding `CN(C)CCCN1c2ccccc2Sc2ccc(Cl)cc21` [CPZ, chlorpromazine], the inhibition at 35 µM in the data set on SFTSV [2] (Severe fever with thrombocytopenia syndrome virus, Vero, read-out: mean inhibition rate of SFTSV infection) is 46.1%.

In the data set with SFTSV [3], `COc1c(C)c2c(c(O)c1C/C=C(\C)CCC(=O)OCCN1CCOCC1)C(=O)OC2` [Mycophenolate mofetil] had an SI of over 10, an IC50 of 0.57 µM and an IC90 of 1.52 µM. The CC50 in “in vitro” was over 100 µM.

Take `COc1c(C)c2c(c(O)c1C/C=C(\C)CCC(=O)O)C(=O)OC2` [Mycophenolic acid]: in the data set on SFTSV [3], the SI was over 10, 0.47 µM corresponded to half-maximal inhibition (IC50) and the IC90 stood at 4.75 µM. The compound further registered a CC50 in “in vitro” of over 100 µM.

In the data set with SFTSV [3], `COc1cccc(-c2ccc(NC(=O)C3=C(C(=O)O)CCC3)c(F)c2)c1` [Vidofludimus] returned an SI of over 10, an IC50 of 6.07 µM and an IC90 of 14.6 µM. This compound also came in with a CC50 in the data set “in vitro” of over 100 µM.

Take `CC(=O)Oc1ccccc1C(=O)Nc1ncc([N+](=O)[O-])s1` [Nitazoxanide]: in the data set on SFTSV [3], the IC50 stood at 11.1 µM and the 90% effect level (IC90) was put at 25.3 µM. In the data set “in vitro”, the CC50 was over 100 µM.

In the data set with SFTSV [3], `O=C1C(O)=C([C@H]2CC[C@H](c3ccc(Cl)cc3)CC2)C(=O)c2ccccc21` [Atovaqone, Atovaquone] yielded an SI of over 10, an IC50 of 5.06 µM and an IC90 of 10.1 µM. The CC50 in “in vitro” was over 100 µM.

For `Oc1ccc2ccccc2c1SSc1c(O)ccc2ccccc12` [IPA3, p21-activated kinase inhibitor III], in the data set with SFTSV [2], the “mean inhibition rate of SFTSV infection” value amounted to 43.22%.

`CCCCCOc1ccc(-c2ccc(-c3ccc(C(=O)N[C@H]4C[C@@H](O)[C@@H](O)NC(=O)[C@@H]5[C@@H](O)[C@@H](C)CN5C(=O)[C@H]([C@@H](C)O)NC(=O)[C@H]([C@H](O)[C@@H](O)c5ccc(O)cc5)NC(=O)[C@@H]5C[C@@H](O)CN5C(=O)[C@H]([C@@H](C)O)NC4=O)cc3)cc2)cc1` [Anidulafungin, anidulafungin] ({pTerphenylCO(4''-OnC5H11)}-[Orn(4R-OH,5R-OH)]T[Hyp][hTyr(3S-OH,4S-OH)]T[Pro(3S-OH,4S-Me)]; lactam 1-C): the SI in the data set with SFTSV [3] stood at 13.80; with SARS-CoV-2 it was 7.59; in the data set with GTV, 7.53; in the data set with HRTV, 8.35; with ZIKV, 9.54; in the data set with CCHFV, 3.86. This compound had an SI in the data set with HSV-1 of 6.12. Besides, the 50% inhibitory concentration (IC50) with SFTSV [3] came out at 3.02 µM; in the data set on SARS-CoV-2 (setting [9]) it was 5.49 µM; in the data set on GTV (Guertu virus, Vero), 5.54 µM; with HRTV (Heartland virus, Vero) it was 4.99 µM; with ZIKV (Zika virus, Vero) it was 4.37 µM; in the data set on CCHFV (setting [10]), 10.8 µM. For the same compound, the IC50 in the data set on HSV-1 (Human alphaherpesvirus 1, Vero) is 6.81 µM; in the data set on DENV, 3.24 µM. Also, the IC90 in the data set on SFTSV [3] is 12.4 µM; in the data set on SARS-CoV-2 (setting [9]) it was 8.55 µM; in the data set on GTV (Guertu virus, Vero), 9.62 µM; in the data set on HRTV (Heartland virus, Vero), 9.29 µM; in the data set with ZIKV (Zika virus, Vero), 6.44 µM; in the data set on CCHFV (setting [10]), 24.2 µM. Further, in the data set with HSV-1 (Human alphaherpesvirus 1, Vero), the IC90 came out at 9.12 µM. In the data set with SFTSV [4], the “reduction of intracellular viral RNA copies relative to the control” value is “over 10 times”. In the data set on SFTSV [1], the “suppression of the entry of SFTSV strain HBMC5” value is “as efficiently as the strain WCH”. In addition, the “efficacy of virus binding to cells versus vehicle” value in the data set on SFTSV [5] is reported as “did not have a significant difference”. Further, in the data set with SFTSV [6], the “number of intracellular viral RNA copies (virus internalization)” value is “significantly decreased”. Moreover, the “number and size of syncytia (fusion ability)” value in the data set on SFTSV [7] is reported as “decreased”. Moreover, the “PLT (median, IQR)” value in the data set with SFTSV [8] is 1054.5 (993.25, 1094) ×10^9/L and 950 (494.5, 1062.75) ×10^9/L and 1141 (1050, 1191) ×10^9/L. The “WBC (median, IQR)” value with SFTSV [8] is 4.75 (4.35, 5.465) ×10^9/L and 4.72 (4.31, 6.195) ×10^9/L and 5.76 (5.28, 6.04) ×10^9/L. In the data set with SFTSV [8], the body weight entry is listed as “maintained; also recorded: slight decrease”. The “clinical signs of illness onset” value in the data set with SFTSV [8] was “did not show typical clinical signs of illness onset”. The “histopathological damage in the lung, H&E” value with SFTSV [8] was “significantly ameliorated”. In addition, the “kidney lesions (renal tubulointerstitial hemorrhaging, edemas), H&E” value in the data set on SFTSV [8] was “slight”. In the data set with SFTSV [8], the “liver lesion (ballooning degeneration of hepatocytes), H&E” value is reported as “significantly attenuated”. Moreover, the survival rate in the data set with SFTSV [8] was 66.7% and 50.0%. The same compound returned a CC50 in the data set “in vitro” of 41.7 µM.

Consider `CC[C@H](C)C[C@H](C)CCCCCCCCC(=O)N[C@H]1C[C@@H](O)[C@@H](NCCN)NC(=O)[C@@H]2[C@@H](O)CCN2C(=O)[C@H]([C@H](O)CCN)NC(=O)[C@H]([C@H](O)[C@@H](O)c2ccc(O)cc2)NC(=O)[C@@H]2C[C@@H](O)CN2C(=O)[C@H]([C@@H](C)O)NC1=O` [caspofungin], for which the “inhibitory effect on SFTSV infection during the entry process” value in the data set with SFTSV [1] was “limited effect”. The IC50 in the data set on DENV was 20.8 µM.
